Bridge positions count the residues as written; N and C are the ends. Peptide text beside a SMILES is read from it.
Columns and labels:
[1] = target: T1, hKv1.5 (Homo sapiens, UniProt P22460); assay: Whole-cell patch clamp, Kv1.5 ionic current in CHO-K1 cells; format: cell-based; details: +30 mV, 500 ms, holding −80 mV, mean ± SD, n = 4–7, read-out: IC50, inhibition of Kv1.5 current (full inhibition)
T1 construct: expressed in transfected cells; host or cells: CHO-K1
Method: The cDNA of hKv1.1, hKv1.2, hKv1.3, rKv1.4, hKv1.5, mKv1.6, and hKv1.7 were subcloned into mammalian expression vectors pcDNA3.1 or pCMV-blank vectors, as well as other plasmids described previously ([35]). Channel mutants were generated by site-directed mutations. Briefly, the parental channel plasmid was amplified using a pair of oppositely directed primers harboring the designed mutation site, with KOD Fx (TOYOBO Co, Ltd). The resulting PCR mix was treated with FastDigest DpnI (Thermo Fisher Scientific) to remove the methylated template. Ten microliters of the digested product was then used to transform 100 μl E. coli DH5α competent cells. […]
CHO-K1 cells were selected for expressing Kv channels due to their lack of endogenous Kv channels, while HEK293 or ND7/23 cells were used for Nav and Cav channel expression. […] After 4 to 6 h transfection, cells were seeded onto poly-lysine–coated coverslips, and 24 to 36 h later, transfected cells were ready for patch-clamp analysis. […]
For Kv current recordings, the bath solution contained (in mM) the following: 140 NaCl, 5 KCl, 1 MgCl2, 2 CaCl2, 10 glucose, and 10 Hepes (pH 7.3, adjusted with NaOH), and the pipette solution contained (in mM) the following: 140 KCl, 2.5 MgCl2, 11 EGTA, and 10 Hepes (pH 7.3, adjusted with KOH). […] The steady-state fast inactivation of Kv1.3 was measured using a two-pulses protocol. […]

[2] = test system: Kv1.1/1.3 S1-S2 chimeric channel; assay: Whole-cell patch clamp, chimeric channel; format: cell-based, human; details: +30 mV, mean ± SD
Description: (§1) To investigate the structural determinants underlying the differential regulatory effects of MrVIII on Kv1 channels, we employed a chimeric channel strategy. Using Kv1.3 as the template, the S1-S2, S3-S4, and S5-S6 transmembrane helices and their respective linkers from Kv1.1 were inserted to generate chimeras, generating the Kv1.3/1.1 S1-S2, Kv1.3/1.1 S3-S4, and Kv1.3/1.1 S5-S6 chimeric channels. […] These findings indicate that the S3-S4 is the key determinant for the differential inhibition of Kv1.1 and Kv1.3 by MrVIII. To further validate this conclusion, we constructed a reverse chimeric channel using Kv1.1 as the template, inserting the corresponding regions from Kv1.3 into Kv1.1. […] This finding more directly illustrates the exchange of the channel's voltage-dependence phenotype in toxin inhibition by swapping this S3-S4 between Kv1.1 and Kv1.3. […] In addition to confirming the differential role of S3-S4 between Kv1.1 and Kv1.3, we also substituted the S3-S4 of Kv1.4 and Kv1.7 into Kv1.3 to analyze MrVIII's inhibition profile. […] The IC50 for Kv1.3/1.7 S3-S4 could not be fitted, and inhi%(495 ms) was only 23.1 ± 10.0% (Fig. S2, E and F).
(§2) The cDNA of hKv1.1, hKv1.2, hKv1.3, rKv1.4, hKv1.5, mKv1.6, and hKv1.7 were subcloned into mammalian expression vectors pcDNA3.1 or pCMV-blank vectors, as well as other plasmids described previously ([35]). Channel mutants were generated by site-directed mutations. Briefly, the parental channel plasmid was amplified using a pair of oppositely directed primers harboring the designed mutation site, with KOD Fx (TOYOBO Co, Ltd). The resulting PCR mix was treated with FastDigest DpnI (Thermo Fisher Scientific) to remove the methylated template. Ten microliters of the digested product was then used to transform 100 μl E. coli DH5α competent cells. Transformants were randomly picked and sequenced to confirm the presence of the intended mutation.
(§3) CHO-K1 cells were selected for expressing Kv channels due to their lack of endogenous Kv channels, while HEK293 or ND7/23 cells were used for Nav and Cav channel expression. CHO-K1 cells were cultured in a Dulbecco's modified Eagle's medium/Ham's F-12 nutrient mixture (DMEM-F12) medium, and HEK293T and ND7/23 cells in DMEM medium, all supplemented with 10% fetal bovine serum and 1% penicillin-streptomycin (all from Gibco, Thermo Fisher Scientific, Inc) under standard conditions (37 °C, 5% CO2, and saturated humidity). These cell lines were purchased from Stem Cell Bank, Chinese Academy of Sciences. Channel plasmids were cotransfected with pEGFP-N1 (encoding GFP) into the respective cells using lipofectamine 2000, following the manufacturer's instructions (Invitrogen, Thermo Fisher Scientific, Inc.). Nav1.9-GFP plasmid was transfected into ND7/23 using the X-tremeGENE HP DNA Transfection Reagent (Roche). After 4 to 6 h transfection, cells were seeded onto poly-lysine–coated coverslips, and 24 to 36 h later, transfected cells were ready for patch-clamp analysis.
(§4) Patch clamp experiments were conducted using an electrophysiology platform comprising a MultiClamp 700B amplifier and an Axon Digidata 1550 AD/DA convertor (Axon Instruments). Data acquisition was performed with pClamp 10.5 software (Axon Instruments). All experiments were performed at room temperature.
(§5) For Kv current recordings, the bath solution contained (in mM) the following: 140 NaCl, 5 KCl, 1 MgCl2, 2 CaCl2, 10 glucose, and 10 Hepes (pH 7.3, adjusted with NaOH), and the pipette solution contained (in mM) the following: 140 KCl, 2.5 MgCl2, 11 EGTA, and 10 Hepes (pH 7.3, adjusted with KOH). Series resistance was maintained below 10 MΩ and compensated to 80%. Concentration–response curves were fitted by the Hill equation to determine the toxin's potency. Whole cell conductance (G) at each depolarizing voltage (V) was determined using the equation: G = I/(V−Vrev), where I is the current amplitude, and Vrev is the reversal potential. […]

[3] = test system: Kv1.1/1.3 S3-S4 chimeric channel; assay: Whole-cell patch clamp, chimeric channel; format: cell-based, human; details: +30 mV, 500 ms, mean ± SD, n = 4-5, read-out: IC50, Kv1.1/1.3 S3-S4 current (complete inhibition)
Description: as §1, §2, §3, §4, §5

[4] = test system: Kv1.3/1.1 S3-S4 chimeric channel; assay: Whole-cell patch clamp, chimeric channel; format: cell-based, human; details: +30 mV, mean ± SD
Description: as §1, §2, §3, §4, §5

T1 sequence (P22460 whole entry): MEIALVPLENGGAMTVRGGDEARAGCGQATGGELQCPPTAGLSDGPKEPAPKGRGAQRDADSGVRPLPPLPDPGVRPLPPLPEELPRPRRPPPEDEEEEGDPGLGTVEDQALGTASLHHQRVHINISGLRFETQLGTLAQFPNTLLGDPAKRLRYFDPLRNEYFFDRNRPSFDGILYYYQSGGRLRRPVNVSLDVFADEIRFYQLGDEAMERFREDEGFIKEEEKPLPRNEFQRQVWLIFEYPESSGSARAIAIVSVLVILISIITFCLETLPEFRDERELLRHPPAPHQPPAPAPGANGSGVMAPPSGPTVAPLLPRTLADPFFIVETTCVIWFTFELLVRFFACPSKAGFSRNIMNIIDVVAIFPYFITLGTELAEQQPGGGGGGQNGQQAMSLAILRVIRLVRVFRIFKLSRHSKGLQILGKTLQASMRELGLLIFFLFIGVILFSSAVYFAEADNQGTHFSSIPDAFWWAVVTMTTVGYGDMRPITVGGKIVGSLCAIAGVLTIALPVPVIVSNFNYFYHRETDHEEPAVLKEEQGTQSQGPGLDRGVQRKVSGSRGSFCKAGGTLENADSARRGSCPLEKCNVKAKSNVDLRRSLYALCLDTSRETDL

Question: Which IC50 [1] does the source give for CC[C@H](C)[C@@H]1NC(=O)[C@H](Cc2ccc(O)cc2)NC(=O)[C@H](CCC(N)=O)NC(=O)[C@@H]2CCCN2C(=O)[C@@H]2CSSC[C@H](NC(=O)[C@H](C)NC(=O)[C@H](CO)NC(=O)[C@H](CCC(=O)O)NC(=O)[C@H](CCC(=O)O)NC(=O)[C@@H](N)[C@@H](C)O)C(=O)NCC(=O)NCC(=O)N[C@@H](Cc3ccccc3)C(=O)N[C@@H](CC(N)=O)C(=O)N[C@@H](C)C(=O)N[C@@H](CCCNC(=N)N)C(=O)N[C@H]3CSSC[C@H](NC1=O)C(=O)N[C@@H](CCCCN)C(=O)NCC(=O)N[C@@H](Cc1c[nH]c4ccccc14)C(=O)N[C@@H](CCCNC(=N)N)C(=O)N[C@@H]([C@@H](C)O)C(=O)N[C@@H](CCCCN)C(=O)N[C@@H](CCCNC(=N)N)C(=O)N[C@H](C(=O)N[C@@H](CC(C)C)C(=O)N[C@@H](CC(N)=O)C(=O)N1CCC[C@H]1C(=O)O)CSSC[C@H](NC(=O)[C@H](CCCCN)NC(=O)[C@H](Cc1c[nH]cn1)NC(=O)[C@H](CC(C)C)NC(=O)[C@@H]1CCCN1C3=O)C(=O)N2 [MrVIII] (H-TEESACGGFNARCPLHKCCPQYICKGWRTKRCLNP-OH; disulfide 6-19, 13-24, 18-32; N-terminus and C-terminus assumed) here?
Answer: 5.7 ± 2.2 nM

Question: What about the IC50 ([2]; current at 50 ms, n = 4-5) of the same compound?
Answer: 103 ± 59.1 nM

Question: What about the “inhi%(495 ms), Kv1.1/1.3 S1-S2 current” value ([2]; current at 495 ms) of the same compound?
Answer: 60.5 ± 18.5%

Question: And the IC50 [3]?
Answer: 1.7 ± 0.6 nM

Question: What about the IC50 ([4]; current at 50 ms, n = 4-5) of the same compound?
Answer: 230 ± 123 nM

Question: What about the “inhi%(495 ms), Kv1.3/1.1 S3-S4 current” value ([4]; current at 495 ms, negative = current enhanced) of the same compound?
Answer: −10.0 ± 13.9%

Reference: article PMC11984586, “A novel spider toxin as a selective antagonist of the Kv1 subfamily of voltage-gated potassium channels through gating modulation” (The Journal of Biological Chemistry, 2025)
